In patent US9757388B2 (Acerus Pharmaceuticals SRL, priority 2011, dated 2017):

Details: drug substance

C[C@]12CC[C@H]3[C@@H](CCC4=CC(=O)CC[C@@]43C)[C@@H]1CC[C@@H]2O [Testosterone, 17β-Hydroxyandrost-4-en-3-one]
Stability in air: powder. It is odourless, and stable in air.
